Results taken from PMC5560747, “Computational-experimental approach to drug-target interaction mapping: A case study on kinase inhibitors” (PLoS Computational Biology, 2017).

Columns and labels:
RPS6KB1 [1] = biological target: T1, RPS6KB1 (Homo sapiens, UniProt P23443); set-up: method as in Gao et al. [42]; details: ref Gao et al. [42], cited from earlier work
T1 construct: purchased SignalChem R21-10H-10

TRKA = TRKA (Homo sapiens, UniProt P04629); set-up: method as in Gao et al. [42]; details: ref Gao et al. [42], cited from earlier work
LYN B = LYN B (Homo sapiens, UniProt P07948); set-up: method as in Gao et al. [42]; details: ref Gao et al. [42], cited from earlier work
KIT = tested on: KIT; set-up: method as in Gao et al. [42]; details: ref Gao et al. [42], cited from earlier work
TSSK1B = tested on: TSSK1B; set-up: method as in Gao et al. [42]; details: ref Gao et al. [42], cited from earlier work
GSK3b = tested on: GSK3b; set-up: method as in Gao et al. [42]; details: ref Gao et al. [42], cited from earlier work
FYN A = FYN A (Homo sapiens, UniProt P06241); experiment: ADP-Glo Kinase Assay, tivozanib off-target testing; format: biochemical; details: read-out: Experimental validation pIC50 (converted)
Experimental: (§1) The kinase inhibitors were dissolved to 1X Kinase Buffer with 5% DMSO by transferring 200nL of the buffer using ECHO525 Liquid handler (Labcyte). […] The dissolved kinases and 2.5X kinase buffer controls were transferred at 400nL using ECHO525. […] The 2.5X ATP/substrate working stocks were transferred at 400nL using ECHO525.
(§2) For the ADP detection, 1 μl ADP-Glo reagent was dispensed (Thermo Scientific Multidrop Combi nL). […] Next, 2 μl kinase detection reagent was dispensed with Thermo Scientific Multidrop Combi nL.
(§3) Kinase assay, kinase dilution and substrate buffers were as indicated by the manufacturer (Promega). The assays were performed in the same way as with the kinases from the Kinase Selectivity Profiling System + ADP-Glo Assay kits (see previous section). All the assays were done in three individual experiments, each having three replicates.
(§4) IC50 values from all the experiments were obtained with GraphPad Prism 7 (GraphPad Software, Inc. California, USA) using inhibitor vs. response—variable slope (four parameters) analysis. […] X-axis scale was set to log10.

PKN2 = tested on: PKN2; set-up: method as in Gao et al. [42]; details: ref Gao et al. [42], cited from earlier work
PDK1 = tested on: PDK1; set-up: method as in Gao et al. [42]; details: ref Gao et al. [42], cited from earlier work
BLK = tested on: BLK; set-up: method as in Gao et al. [42]; details: ref Gao et al. [42], cited from earlier work
CSNK1D = tested on: CSNK1D; set-up: method as in Gao et al. [42]; details: ref Gao et al. [42], cited from earlier work
SYK = SYK (Homo sapiens, UniProt P43405); set-up: method as in Gao et al. [42]; details: ref Gao et al. [42]; cited from earlier work
RPS6KA5 = tested on: RPS6KA5; set-up: method as in Gao et al. [42]; details: ref Gao et al. [42], cited from earlier work
PRKD2 = tested on: PRKD2; set-up: method as in Gao et al. [42]; details: ref Gao et al. [42], cited from earlier work
NEK2 = tested on: NEK2; set-up: method as in Gao et al. [42]; details: ref Gao et al. [42], cited from earlier work
STK24 = tested on: STK24; set-up: method as in Gao et al. [42]; details: ref Gao et al. [42], cited from earlier work
JAK2 = tested on: JAK2; set-up: method as in Gao et al. [42]; details: ref Gao et al. [42], cited from earlier work
FES = tested on: FES; set-up: method as in Gao et al. [42]; details: ref Gao et al. [42], cited from earlier work
IKKb = tested on: IKKb; set-up: method as in Gao et al. [42]; details: ref Gao et al. [42], cited from earlier work
FGFR3 = tested on: FGFR3; set-up: method as in Gao et al. [42]; details: ref Gao et al. [42], cited from earlier work
PIM3 = tested on: PIM3; set-up: method as in Gao et al. [42]; details: ref Gao et al. [42], cited from earlier work
STK17A = tested on: STK17A; set-up: method as in Gao et al. [42]; details: ref Gao et al. [42], cited from earlier work
MELK = tested on: MELK; set-up: method as in Gao et al. [42]; details: ref Gao et al. [42], cited from earlier work
GSK3A = tested on: GSK3A; set-up: method as in Gao et al. [42]; details: ref Gao et al. [42], cited from earlier work
IGF1R = IGF1R (Homo sapiens, UniProt P08069); set-up: method as in Gao et al. [42]; details: ref Gao et al. [42]; cited from earlier work
EPHA2 = tested on: EPHA2; set-up: method as in Gao et al. [42]; details: ref Gao et al. [42], cited from earlier work
Aurora B = tested on: Aurora B; set-up: method as in Gao et al. [42]; details: ref Gao et al. [42], cited from earlier work
CDK1 = tested on: CDK1; set-up: method as in Gao et al. [42]; details: ref Gao et al. [42], cited from earlier work
SRPK1 = tested on: SRPK1; set-up: method as in Gao et al. [42]; details: ref Gao et al. [42], cited from earlier work
JNK1 = tested on: JNK1; set-up: method as in Gao et al. [42]; details: ref Gao et al. [42], cited from earlier work
TSSK2 = tested on: TSSK2; set-up: method as in Gao et al. [42]; details: ref Gao et al. [42], cited from earlier work
RPS6KB1 [2] = biological target: T1, RPS6KB1; experiment: ADP-Glo Kinase Assay, tivozanib off-target testing; format: biochemical; details: read-out: Experimental validation pIC50 (converted)
Experimental: as §1, §2, §3, §4

MAPKAPK2 = tested on: MAPKAPK2; set-up: method as in Gao et al. [42]; details: ref Gao et al. [42], cited from earlier work
JAK3 = JAK3 (Homo sapiens, UniProt P52333); set-up: method as in Gao et al. [42]; details: ref Gao et al. [42], cited from earlier work
Chain of JAK3 (P52333 whole entry): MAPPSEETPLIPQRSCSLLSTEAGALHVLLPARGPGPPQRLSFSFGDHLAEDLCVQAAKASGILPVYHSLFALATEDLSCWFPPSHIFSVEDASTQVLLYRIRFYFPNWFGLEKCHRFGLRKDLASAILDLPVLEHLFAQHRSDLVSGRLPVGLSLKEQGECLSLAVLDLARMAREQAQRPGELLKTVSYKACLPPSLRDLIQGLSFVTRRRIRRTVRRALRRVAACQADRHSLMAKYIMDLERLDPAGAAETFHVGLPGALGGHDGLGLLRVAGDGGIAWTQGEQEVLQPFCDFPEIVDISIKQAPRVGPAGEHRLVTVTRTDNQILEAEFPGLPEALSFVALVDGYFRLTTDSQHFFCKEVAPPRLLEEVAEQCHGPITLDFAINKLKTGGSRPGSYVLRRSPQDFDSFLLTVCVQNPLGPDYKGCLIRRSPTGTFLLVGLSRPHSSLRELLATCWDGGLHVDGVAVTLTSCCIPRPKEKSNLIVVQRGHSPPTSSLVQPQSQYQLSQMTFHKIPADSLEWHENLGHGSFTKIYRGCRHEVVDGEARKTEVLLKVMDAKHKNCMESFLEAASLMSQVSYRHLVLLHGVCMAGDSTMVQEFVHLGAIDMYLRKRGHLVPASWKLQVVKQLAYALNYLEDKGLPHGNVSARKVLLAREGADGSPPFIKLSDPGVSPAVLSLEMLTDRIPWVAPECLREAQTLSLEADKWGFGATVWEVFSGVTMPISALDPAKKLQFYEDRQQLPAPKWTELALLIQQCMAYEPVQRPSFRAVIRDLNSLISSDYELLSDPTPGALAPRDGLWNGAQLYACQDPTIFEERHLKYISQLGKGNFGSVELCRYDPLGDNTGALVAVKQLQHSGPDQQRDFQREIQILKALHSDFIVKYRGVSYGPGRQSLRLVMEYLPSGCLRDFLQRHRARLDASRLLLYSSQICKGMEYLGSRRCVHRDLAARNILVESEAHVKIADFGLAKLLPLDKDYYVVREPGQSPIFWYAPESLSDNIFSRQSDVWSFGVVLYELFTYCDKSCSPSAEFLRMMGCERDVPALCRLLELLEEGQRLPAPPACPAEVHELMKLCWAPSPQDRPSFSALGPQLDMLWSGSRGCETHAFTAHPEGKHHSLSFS

T1 sequence (P23443 whole entry): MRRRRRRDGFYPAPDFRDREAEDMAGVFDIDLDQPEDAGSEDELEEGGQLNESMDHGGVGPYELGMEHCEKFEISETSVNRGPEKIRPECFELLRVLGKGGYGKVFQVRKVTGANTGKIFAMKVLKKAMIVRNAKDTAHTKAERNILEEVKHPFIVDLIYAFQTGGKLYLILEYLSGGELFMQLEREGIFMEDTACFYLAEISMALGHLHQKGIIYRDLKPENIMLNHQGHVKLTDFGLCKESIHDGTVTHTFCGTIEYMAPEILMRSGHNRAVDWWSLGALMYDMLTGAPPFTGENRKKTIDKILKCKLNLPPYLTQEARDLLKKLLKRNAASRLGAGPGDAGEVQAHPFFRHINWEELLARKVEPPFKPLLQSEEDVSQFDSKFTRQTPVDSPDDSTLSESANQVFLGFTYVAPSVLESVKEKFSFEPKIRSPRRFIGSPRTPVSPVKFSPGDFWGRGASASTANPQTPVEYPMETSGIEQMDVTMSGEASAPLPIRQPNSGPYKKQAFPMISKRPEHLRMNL
Chain of LYN B (P07948 1-491 isoform P07948-2): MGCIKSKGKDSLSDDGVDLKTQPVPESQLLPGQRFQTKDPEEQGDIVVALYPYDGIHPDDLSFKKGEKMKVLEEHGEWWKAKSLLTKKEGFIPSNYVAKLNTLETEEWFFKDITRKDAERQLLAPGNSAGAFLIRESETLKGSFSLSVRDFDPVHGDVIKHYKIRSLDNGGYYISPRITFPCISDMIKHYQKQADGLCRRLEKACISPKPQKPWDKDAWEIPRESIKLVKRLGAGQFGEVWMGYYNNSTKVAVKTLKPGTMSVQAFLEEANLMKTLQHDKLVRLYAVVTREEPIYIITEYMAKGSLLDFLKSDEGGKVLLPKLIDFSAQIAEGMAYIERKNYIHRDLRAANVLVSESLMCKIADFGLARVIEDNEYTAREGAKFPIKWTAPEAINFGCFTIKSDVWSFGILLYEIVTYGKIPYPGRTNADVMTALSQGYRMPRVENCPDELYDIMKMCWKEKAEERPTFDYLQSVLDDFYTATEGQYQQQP
Chain of TRKA (P04629 33-796): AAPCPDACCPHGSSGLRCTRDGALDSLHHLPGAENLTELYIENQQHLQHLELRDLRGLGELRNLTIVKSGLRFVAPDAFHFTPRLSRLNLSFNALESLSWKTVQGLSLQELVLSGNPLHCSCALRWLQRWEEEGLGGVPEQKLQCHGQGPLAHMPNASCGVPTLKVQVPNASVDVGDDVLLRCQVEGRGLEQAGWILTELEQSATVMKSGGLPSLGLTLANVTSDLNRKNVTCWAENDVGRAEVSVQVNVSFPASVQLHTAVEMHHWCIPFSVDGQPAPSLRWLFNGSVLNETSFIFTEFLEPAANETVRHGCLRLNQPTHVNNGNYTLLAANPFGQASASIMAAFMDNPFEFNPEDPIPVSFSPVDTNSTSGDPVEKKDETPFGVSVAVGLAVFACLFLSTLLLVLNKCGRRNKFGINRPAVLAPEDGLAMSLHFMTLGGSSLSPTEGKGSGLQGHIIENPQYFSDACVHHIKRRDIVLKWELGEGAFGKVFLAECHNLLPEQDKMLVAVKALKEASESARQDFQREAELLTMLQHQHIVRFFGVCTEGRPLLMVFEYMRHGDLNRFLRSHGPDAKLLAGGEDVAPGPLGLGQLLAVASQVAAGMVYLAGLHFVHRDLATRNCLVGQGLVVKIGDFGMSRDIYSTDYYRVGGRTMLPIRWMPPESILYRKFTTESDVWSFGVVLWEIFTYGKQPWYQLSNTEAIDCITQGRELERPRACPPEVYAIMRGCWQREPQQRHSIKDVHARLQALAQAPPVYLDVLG
Chain of IGF1R (P08069 31-1367): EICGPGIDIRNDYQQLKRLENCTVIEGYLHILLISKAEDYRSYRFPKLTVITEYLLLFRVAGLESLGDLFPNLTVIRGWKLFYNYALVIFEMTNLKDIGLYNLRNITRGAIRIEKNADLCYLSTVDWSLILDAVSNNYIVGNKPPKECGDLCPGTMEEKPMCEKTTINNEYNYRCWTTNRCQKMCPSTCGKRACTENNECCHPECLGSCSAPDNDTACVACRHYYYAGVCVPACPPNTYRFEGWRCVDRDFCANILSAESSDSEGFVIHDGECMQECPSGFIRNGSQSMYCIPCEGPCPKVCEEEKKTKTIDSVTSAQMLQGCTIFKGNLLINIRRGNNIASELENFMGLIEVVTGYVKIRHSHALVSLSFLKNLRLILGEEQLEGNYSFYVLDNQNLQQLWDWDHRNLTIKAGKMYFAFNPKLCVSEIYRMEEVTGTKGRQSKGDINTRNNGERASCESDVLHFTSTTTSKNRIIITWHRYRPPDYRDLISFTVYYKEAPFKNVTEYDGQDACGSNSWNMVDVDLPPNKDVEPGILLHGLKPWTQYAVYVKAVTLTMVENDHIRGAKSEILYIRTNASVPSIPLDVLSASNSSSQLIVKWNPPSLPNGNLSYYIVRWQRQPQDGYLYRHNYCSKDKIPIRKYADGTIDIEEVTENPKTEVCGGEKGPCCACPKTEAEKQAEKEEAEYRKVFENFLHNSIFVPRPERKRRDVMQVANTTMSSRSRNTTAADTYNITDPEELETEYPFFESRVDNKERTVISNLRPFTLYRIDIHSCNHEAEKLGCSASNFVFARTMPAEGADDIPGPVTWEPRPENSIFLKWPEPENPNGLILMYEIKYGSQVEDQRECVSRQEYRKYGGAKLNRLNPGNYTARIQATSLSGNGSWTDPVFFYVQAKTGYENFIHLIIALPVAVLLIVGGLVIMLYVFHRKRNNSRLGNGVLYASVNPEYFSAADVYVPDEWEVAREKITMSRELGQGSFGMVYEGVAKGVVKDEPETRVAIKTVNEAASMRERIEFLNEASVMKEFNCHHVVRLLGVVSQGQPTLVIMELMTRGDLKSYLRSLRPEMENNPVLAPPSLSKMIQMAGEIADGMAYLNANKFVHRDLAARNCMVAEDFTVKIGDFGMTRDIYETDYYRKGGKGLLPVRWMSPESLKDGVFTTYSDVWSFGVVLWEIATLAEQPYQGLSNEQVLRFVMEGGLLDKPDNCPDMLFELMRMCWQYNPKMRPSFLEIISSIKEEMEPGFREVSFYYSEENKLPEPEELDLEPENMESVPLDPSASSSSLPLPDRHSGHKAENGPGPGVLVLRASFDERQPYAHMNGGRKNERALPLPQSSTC
Chain of FYN A (P06241 whole entry): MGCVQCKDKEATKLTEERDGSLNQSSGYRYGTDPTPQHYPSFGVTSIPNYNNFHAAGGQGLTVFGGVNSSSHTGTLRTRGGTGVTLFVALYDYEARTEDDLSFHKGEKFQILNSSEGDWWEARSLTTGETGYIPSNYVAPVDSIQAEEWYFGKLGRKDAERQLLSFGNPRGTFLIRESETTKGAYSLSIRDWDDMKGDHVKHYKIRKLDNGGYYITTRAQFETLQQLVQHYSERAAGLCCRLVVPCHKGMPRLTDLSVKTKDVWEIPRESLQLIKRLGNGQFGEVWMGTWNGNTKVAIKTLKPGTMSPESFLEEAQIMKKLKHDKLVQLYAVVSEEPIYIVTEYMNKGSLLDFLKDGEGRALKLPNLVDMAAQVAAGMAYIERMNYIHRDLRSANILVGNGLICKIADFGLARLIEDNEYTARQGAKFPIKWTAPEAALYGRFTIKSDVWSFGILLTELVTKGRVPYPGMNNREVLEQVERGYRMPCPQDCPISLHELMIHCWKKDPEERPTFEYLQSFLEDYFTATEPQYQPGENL

COc1cc2nccc(Oc3ccc(NC(=O)Nc4cc(C)on4)c(Cl)c3)c2cc1OC [TIVOZANIB, Tivozanib]
Gao et al. % of activity remaining at 1 µM (RPS6KB1 [1]; 1 µM): 76%
Gao et al. % of activity remaining at 10 µM (RPS6KB1 [1]; 10 µM): 53%
Gao et al. % of activity remaining at 1 µM (TRKA; 1 µM): 2%
Gao et al. % of activity remaining at 10 µM (TRKA; 10 µM): 0%
Gao et al. % of activity remaining at 1 µM (LYN B; 1 µM): -1%
Gao et al. % of activity remaining at 10 µM (LYN B; 10 µM): 2%
Gao et al. % of activity remaining at 1 µM (KIT; 1 µM): 3%
Gao et al. % of activity remaining at 10 µM (KIT; 10 µM): 0%
Gao et al. % of activity remaining at 1 µM (TSSK1B; 1 µM): 94%
Gao et al. % of activity remaining at 10 µM (TSSK1B; 10 µM): 82%
Gao et al. % of activity remaining at 1 µM (GSK3b; 1 µM): 104%
Gao et al. % of activity remaining at 10 µM (GSK3b; 10 µM): 94%
IC50 (FYN A): 398 nM
Gao et al. % of activity remaining at 1 µM (PKN2; 1 µM): 97%
Gao et al. % of activity remaining at 10 µM (PKN2; 10 µM): 108%
Gao et al. % of activity remaining at 1 µM (PDK1; 1 µM): 110%
Gao et al. % of activity remaining at 10 µM (PDK1; 10 µM): 116%
Gao et al. % of activity remaining at 1 µM (BLK; 1 µM): 2%
Gao et al. % of activity remaining at 10 µM (BLK; 10 µM): 0%
Gao et al. % of activity remaining at 1 µM (CSNK1D; 1 µM): 85%
Gao et al. % of activity remaining at 10 µM (CSNK1D; 10 µM): 61%
Gao et al. % of activity remaining at 10 µM (SYK): 73%
Gao et al. % of activity remaining at 1 µM (RPS6KA5; 1 µM): 107%
Gao et al. % of activity remaining at 10 µM (RPS6KA5; 10 µM): 80%
Gao et al. % of activity remaining at 1 µM (PRKD2; 1 µM): 95%
Gao et al. % of activity remaining at 10 µM (PRKD2; 10 µM): 103%
Gao et al. % of activity remaining at 1 µM (NEK2; 1 µM): 88%
Gao et al. % of activity remaining at 10 µM (NEK2; 10 µM): 100%
Gao et al. % of activity remaining at 1 µM (STK24; 1 µM): 118%
Gao et al. % of activity remaining at 10 µM (STK24; 10 µM): 78%
Gao et al. % of activity remaining at 1 µM (JAK2; 1 µM): 114%
Gao et al. % of activity remaining at 10 µM (JAK2; 10 µM): 114%
Gao et al. % of activity remaining at 1 µM (FES; 1 µM): 78%
Gao et al. % of activity remaining at 10 µM (FES; 10 µM): 46%
Gao et al. % of activity remaining at 1 µM (IKKb; 1 µM): 104%
Gao et al. % of activity remaining at 10 µM (IKKb; 10 µM): 102%
Gao et al. % of activity remaining at 1 µM (FGFR3; 1 µM): 59%
Gao et al. % of activity remaining at 10 µM (FGFR3; 10 µM): 28%
Gao et al. % of activity remaining at 1 µM (PIM3; 1 µM): 107%
Gao et al. % of activity remaining at 10 µM (PIM3; 10 µM): 105%
Gao et al. % of activity remaining at 1 µM (STK17A; 1 µM): 116%
Gao et al. % of activity remaining at 10 µM (STK17A; 10 µM): 87%
Gao et al. % of activity remaining at 1 µM (MELK; 1 µM): 91%
Gao et al. % of activity remaining at 10 µM (MELK; 10 µM): 80%
Gao et al. % of activity remaining at 1 µM (GSK3A; 1 µM): 107%
Gao et al. % of activity remaining at 10 µM (GSK3A; 10 µM): 123%
Gao et al. % of activity remaining at 1 µM (IGF1R): 135%
Gao et al. % of activity remaining at 1 µM (EPHA2; 1 µM): -3%
Gao et al. % of activity remaining at 10 µM (EPHA2; 10 µM): -3%
Gao et al. % of activity remaining at 1 µM (Aurora B; 1 µM): 3%
Gao et al. % of activity remaining at 10 µM (Aurora B; 10 µM): 1%
Gao et al. % of activity remaining at 1 µM (CDK1; 1 µM): 100%
Gao et al. % of activity remaining at 10 µM (CDK1; 10 µM): 94%
Gao et al. % of activity remaining at 1 µM (SRPK1; 1 µM): 98%
Gao et al. % of activity remaining at 10 µM (SRPK1; 10 µM): 90%
Gao et al. % of activity remaining at 1 µM (JNK1; 1 µM): 120%
Gao et al. % of activity remaining at 10 µM (JNK1; 10 µM): 109%
Gao et al. % of activity remaining at 1 µM (TSSK2; 1 µM): 90%
Gao et al. % of activity remaining at 10 µM (TSSK2; 10 µM): 78%
IC50 (RPS6KB1 [2]): > 12500 nM
Gao et al. % of activity remaining at 1 µM (MAPKAPK2; 1 µM): 85%
Gao et al. % of activity remaining at 10 µM (MAPKAPK2; 10 µM): 100%
Gao et al. % of activity remaining at 1 µM (JAK3; 1 µM): 100%
Gao et al. % of activity remaining at 10 µM (JAK3; 10 µM): 48%
